The series is described as follows: in vitro. The following applies: human, hek293t cells.
Protocol: Mammalian cytotoxicity measurement was performed using Cell Titer-Glo 2.0 Cell Viability Assay (Promega, G9243) according to the manufacturer protocol. In brief, mammalian cells were seeded into 384-well white plates (Greiner, 781080) and incubated at 37°C for one day. Compounds from the Cys-Library were dispensed into the assay plate using epMotion 96. The plates were then incubated at 37°C for two days. An equal volume of Cell Titer-Glo 2.0 reagent was added into each well of the assay plate using epMotion 96 and incubated at 22°C for 10 min, followed by luminescence measurement using a Cytation 5 plate reader (BioTek).
A word on the viability: it is a read-out of living cells in per cent, often relative to untreated cells. For the compound `C=CC(=O)N1CCC(C(=O)N2CCC(c3ncco3)CC2)CC1` [2-B06, 1-{4-[4-(1,3-oxazol-2-yl)piperidine-1-carbonyl]piperidin-1-yl}prop-2-en-1-one], the viability at 48 h, 25 µM is 78.3%.

On to `C=CC(=O)N(C1CCCC1)C(C)c1nnc2ccccn12` (centres unmarked) [2-B07, N-cyclopentyl-N-(1-{[1,2,4]triazolo[4,3-a]pyridin-3-yl}ethyl)prop-2-enamide], for which the viability at 48 h, 25 µM worked out at 51.9%.

As to `C=CC(=O)N1CCC(C(=O)N2CCN(CC(C)C)C(=O)C2C)CC1` (centres unmarked) [2-B08, 3-methyl-1-(2-methylpropyl)-4-[1-(prop-2-enoyl)piperidine-4-carbonyl]piperazin-2-one], the viability at 48 h, 25 µM was 83.8%.

Regarding `C=CC(=O)NCC(=C)c1ccccc1` [2-B09, N-(2-phenylprop-2-en-1-yl)prop-2-enamide], the viability at 48 h, 25 µM worked out at 57%.

For the compound `C=CC(=O)N1CCC(C(=O)NC(C)(c2noc(C)n2)C2CC2)CC1` (centres unmarked) [2-B10, N-[1-cyclopropyl-1-(5-methyl-1,2,4-oxadiazol-3-yl)ethyl]-1-(prop-2-enoyl)piperidine-4-carboxamide], the viability at 48 h, 25 µM was determined as 79.8%.

Regarding `C=CC(=O)NCCC(=O)N1CCC(O)(c2c(F)cccc2F)CC1` [2-B11, N-{3-[4-(2,6-difluorophenyl)-4-hydroxypiperidin-1-yl]-3-oxopropyl}prop-2-enamide], the viability at 48 h, 25 µM turned out to be 60%.

As for `C=CC(=O)N1CCC(C(=O)NC2CCOC3(CCSCC3)C2)CC1` (centres unmarked) [2-B12, N-{1-oxa-9-thiaspiro[5.5]undecan-4-yl}-1-(prop-2-enoyl)piperidine-4-carboxamide], the viability at 48 h, 25 µM was found to be 97.1%.

As to `C=CC(=O)NCCc1ccc(S(N)(=O)=O)cc1` [2-B13, N-[2-(4-sulfamoylphenyl)ethyl]prop-2-enamide], the viability at 48 h, 25 µM is 77.8%.

For the compound `C=CC(=O)N(C)CC(=O)NCc1nc2cc(C)ccc2n1C` [2-B14, N-({[(1,5-dimethyl-1H-1,3-benzodiazol-2-yl)methyl]carbamoyl}methyl)-N-methylprop-2-enamide], the viability at 48 h, 25 µM turned out to be 37.9%.

With `C=CC(=O)NCC1CCCc2nccn21` (centres unmarked) [2-B15, N-({5H,6H,7H,8H-imidazo[1,2-a]pyridin-5-yl}methyl)prop-2-enamide], the viability at 48 h, 25 µM stood at 76.8%.

Regarding `C=CC(=O)N1CCC(C(=O)N[C@@H](C)C(=O)NC)(c2ccccc2)CC1` [2-B16, (2S)-N-methyl-2-{[4-phenyl-1-(prop-2-enoyl)piperidin-4-yl]formamido}propanamide], the viability at 48 h, 25 µM worked out at 87%.

As to `C=CC(=O)NCc1ccnc(OC2CCOCC2)c1` [2-B17, N-{[2-(oxan-4-yloxy)pyridin-4-yl]methyl}prop-2-enamide], the viability at 48 h, 25 µM came out at 69.9%.

In the case of `C=CC(=O)N(CC)CC(=O)N1CCn2c(nc(C)c2C)C1` [2-B18, N-(2-{2,3-dimethyl-5H,6H,7H,8H-imidazo[1,2-a]pyrazin-7-yl}-2-oxoethyl)-N-ethylprop-2-enamide], the viability at 48 h, 25 µM turned out to be 94.8%.

As for `C=CC(=O)N(C)Cc1cc2sccc2n1C` [2-B19, N-methyl-N-({4-methyl-4H-thieno[3,2-b]pyrrol-5-yl}methyl)prop-2-enamide], the viability at 48 h, 25 µM stood at 75.1%.

As for `C=CC(=O)NCc1ccc(C(=O)N2CCCCC(SC)C2)cc1` (centres unmarked) [2-B20, N-({4-[3-(methylsulfanyl)azepane-1-carbonyl]phenyl}methyl)prop-2-enamide], the viability at 48 h, 25 µM is 57.3%.

Turning to `C=CC(=O)NC(Cn1ccccc1=O)c1ccccc1` (centres unmarked) [2-B21, N-[2-(2-oxo-1,2-dihydropyridin-1-yl)-1-phenylethyl]prop-2-enamide], the viability at 48 h, 25 µM was 72.3%.

For the compound `C=CC(=O)N(C)CC(=O)N1CCC(C)(c2nc(C)no2)CC1` [2-B22, N-methyl-N-{2-[4-methyl-4-(3-methyl-1,2,4-oxadiazol-5-yl)piperidin-1-yl]-2-oxoethyl}prop-2-enamide], the viability at 48 h, 25 µM was found to be 57.9%.

Consider `C=CC(=O)N1CCCC(n2cncn2)C1` (centres unmarked) [2-C03, 1-[3-(1H-1,2,4-triazol-1-yl)piperidin-1-yl]prop-2-en-1-one], for which the viability at 48 h, 25 µM stood at 90.2%.

Regarding `C=CC(=O)NCCC(=O)N1CCc2ncncc2C1` [2-C04, N-(3-oxo-3-{5H,6H,7H,8H-pyrido[4,3-d]pyrimidin-6-yl}propyl)prop-2-enamide], the viability at 48 h, 25 µM amounted to 93.3%.

`C=CC(=O)NCCN1C(=O)SC(=Cc2ccc(Cl)cc2)C1=O` [2-C05, N-(2-{5-[(4-chlorophenyl)methylidene]-2,4-dioxo-1,3-thiazolidin-3-yl}ethyl)prop-2-enamide]: the viability at 48 h, 25 µM was 87.2%.

Consider `C=CC(=O)N1CCOC2(CCS(=O)(=O)C2)C1` (centres unmarked) [2-C06, 9-(prop-2-enoyl)-6-oxa-2lambda6-thia-9-azaspiro[4.5]decane-2,2-dione], for which the viability at 48 h, 25 µM turned out to be 101%.

Take `C=CC(=O)N(Cc1cc(Cl)ccc1OC)C1CCCOCC1` (centres unmarked) [2-C07, N-[(5-chloro-2-methoxyphenyl)methyl]-N-(oxepan-4-yl)prop-2-enamide]: the viability at 48 h, 25 µM was determined as 95.3%.

As for `C=CC(=O)Nc1ccc(S(C)(=O)=O)cc1OCC` [2-C08, N-(2-ethoxy-4-methanesulfonylphenyl)prop-2-enamide], the viability at 48 h, 25 µM was 0.998%.

Consider `C=CC(=O)NCc1csc(C(C)(C)C)n1` [2-C09, N-[(2-tert-butyl-1,3-thiazol-4-yl)methyl]prop-2-enamide], for which the viability at 48 h, 25 µM came to 86.1%.

Consider `C=CC(=O)N1CCOCC2(CCOCC2)C1` [2-C10, 1-{3,8-dioxa-11-azaspiro[5.6]dodecan-11-yl}prop-2-en-1-one], for which the viability at 48 h, 25 µM is 85.4%.

With `C=CC(=O)NC(Cn1cnc2ccccc21)c1ccc(F)cc1` (centres unmarked) [2-C11, N-[2-(1H-1,3-benzodiazol-1-yl)-1-(4-fluorophenyl)ethyl]prop-2-enamide], the viability at 48 h, 25 µM is 90.5%.

In the case of `C=CC(=O)NCCC(=O)N1CCCC1c1cc(C)on1` (centres unmarked) [2-C12, N-{3-[2-(5-methyl-1,2-oxazol-3-yl)pyrrolidin-1-yl]-3-oxopropyl}prop-2-enamide], the viability at 48 h, 25 µM turned out to be 81.3%.

In the case of `C=CC(=O)N(Cc1cnn(C(C)C)c1)c1ccc2nc(C)oc2c1` [2-C13, N-(2-methyl-1,3-benzoxazol-6-yl)-N-{[1-(propan-2-yl)-1H-pyrazol-4-yl]methyl}prop-2-enamide], the viability at 48 h, 25 µM turned out to be 185%.

In the case of `C=CC(=O)NC(c1noc(O)n1)C(C)(C)C` (centres unmarked) [2-C14, N-[1-(5-hydroxy-1,2,4-oxadiazol-3-yl)-2,2-dimethylpropyl]prop-2-enamide], the viability at 48 h, 25 µM worked out at 96.4%.

On to `C=CC(=O)Nc1cc(C)nn1-c1ccccc1F` [2-C15, N-[1-(2-fluorophenyl)-3-methyl-1H-pyrazol-5-yl]prop-2-enamide], for which the viability at 48 h, 25 µM is 180%.

`C=CC(=O)N1CCC(O)(C(F)(F)C(N)=O)C1` (centres unmarked) [2-C16, 2,2-difluoro-2-[3-hydroxy-1-(prop-2-enoyl)pyrrolidin-3-yl]acetamide]: the viability at 48 h, 25 µM came to 98.2%.

For the compound `C=CC(=O)N1CCC(Cn2nc(C)cc2C)CC1` [2-C17, 1-{4-[(3,5-dimethyl-1H-pyrazol-1-yl)methyl]piperidin-1-yl}prop-2-en-1-one], the viability at 48 h, 25 µM came to 182%.

`C=CC(=O)NCc1cc(-c2ccccc2OC)no1` [2-C18, N-{[3-(2-methoxyphenyl)-1,2-oxazol-5-yl]methyl}prop-2-enamide]: the viability at 48 h, 25 µM worked out at 72.8%.

On to `C=CC(=O)N1CCC(Cc2ccnn2C)CC1` [2-C19, 1-{4-[(1-methyl-1H-pyrazol-5-yl)methyl]piperidin-1-yl}prop-2-en-1-one], for which the viability at 48 h, 25 µM worked out at 74.8%.

For `C=CC(=O)Nc1ccc(C(=O)N2CCCCC2c2noc(C)n2)cc1` (centres unmarked) [2-C20, N-{4-[2-(5-methyl-1,2,4-oxadiazol-3-yl)piperidine-1-carbonyl]phenyl}prop-2-enamide], the viability at 48 h, 25 µM was 77.3%.

On to `C=CC(=O)N1CCCC1c1nc(N(C)C)no1` (centres unmarked) [2-C21, 1-{2-[3-(dimethylamino)-1,2,4-oxadiazol-5-yl]pyrrolidin-1-yl}prop-2-en-1-one], for which the viability at 48 h, 25 µM was 191%.

For the compound `C=CC(=O)Nc1cc(C(=O)CC)ccc1F` [2-C22, N-(2-fluoro-5-propanoylphenyl)prop-2-enamide], the viability at 48 h, 25 µM came out at 84.8%.

Regarding `C=CC(=O)NCC(C)Cn1ccc(C)n1` (centres unmarked) [2-D03, N-[2-methyl-3-(3-methyl-1H-pyrazol-1-yl)propyl]prop-2-enamide], the viability at 48 h, 25 µM was determined as 99.9%.

Turning to `C=CC(=O)N1CCC(C(=O)NCCc2c(C)n[nH]c2C)CC1` [2-D04, N-[2-(3,5-dimethyl-1H-pyrazol-4-yl)ethyl]-1-(prop-2-enoyl)piperidine-4-carboxamide], the viability at 48 h, 25 µM turned out to be 88.7%.

`C=CC(=O)NCCc1nc(C)cs1` [2-D05, N-[2-(4-methyl-1,3-thiazol-2-yl)ethyl]prop-2-enamide]: the viability at 48 h, 25 µM was 70.3%.

For `C=CC(=O)N1CCC(C(=O)N(C)Cc2ccc([S+](C)[O-])cc2)CC1` (centres unmarked) [2-D06, N-[(4-methanesulfinylphenyl)methyl]-N-methyl-1-(prop-2-enoyl)piperidine-4-carboxamide], the viability at 48 h, 25 µM came out at 76.4%.

On to `C=CC(=O)NC1(c2nccc(C(F)(F)F)n2)CC1` [2-D07, N-{1-[4-(trifluoromethyl)pyrimidin-2-yl]cyclopropyl}prop-2-enamide], for which the viability at 48 h, 25 µM stood at 74.9%.

With `C=CC(=O)N1CCC(C(=O)Nc2ccc(N(C)C(C)=O)cc2)CC1` [2-D08, N-[4-(N-methylacetamido)phenyl]-1-(prop-2-enoyl)piperidine-4-carboxamide], the viability at 48 h, 25 µM turned out to be 81.5%.

In the case of `C=CC(=O)N(C)Cc1cncn1C` [2-D09, N-methyl-N-[(1-methyl-1H-imidazol-5-yl)methyl]prop-2-enamide], the viability at 48 h, 25 µM amounted to 61.2%.

Consider `C=CC(=O)N1CCC(C(=O)N2CCC(C(=O)NC3CC3)CC2)CC1` [2-D10, N-cyclopropyl-1-[1-(prop-2-enoyl)piperidine-4-carbonyl]piperidine-4-carboxamide], for which the viability at 48 h, 25 µM amounted to 76.9%.

On to `C=CC(=O)NCc1cnc2ccsc2c1` [2-D11, N-({thieno[3,2-b]pyridin-6-yl}methyl)prop-2-enamide], for which the viability at 48 h, 25 µM worked out at 74.3%.

With `C=CC(=O)N1CCC(C(=O)N2CCC[C@H]2c2ncn[nH]2)CC1` [2-D12, 1-{4-[(2S)-2-(1H-1,2,4-triazol-5-yl)pyrrolidine-1-carbonyl]piperidin-1-yl}prop-2-en-1-one], the viability at 48 h, 25 µM was 81.3%.

These data come from article PMC11995724, “Antibiotic target discovery by integrated phenotypic and activity-based profiling of electrophilic fragments” (Cell chemical biology, 2025).
